Source: patent US8278309B2, “Synthetic mimetics of host defense and uses thereof” (priority 2008, dated 2012)
Entries after “also recorded” stand apart in the source; their conditions may differ. Counter-ions that a name gives are not always drawn. Like-named read-outs stand apart in the source and are kept apart here.

Key:
[1] = rat, in vivo, iv
Method: (§4) Maximum tolerated dose (MTD) determinations were made in ascending/descending dose studies in mice and rats. Compound A was administered by either i.v. bolus injection in the tail vein of mice and rats or by i.v. infusion via catheter in the femoral vein of rats. At each dose, two to three animals were administered compound and clinical signs were recorded over a 4 to 7 day period. Gross necropsy was performed at the conclusion of the study.

[2] = system: MRSA ATCC 33591; assay: Serial passage resistance, MRSA; assay type: cell-based, S. aureus; settings: 0.5×MIC, 17 passages
Method: Frozen bacterial stocks (20 μL) of S. aureus ATCC29213 or methicillin-resistant S. aureus (MRSA ATCC 33591) were inoculated into 3 mL cation-adjusted Mueller-Hinton medium and incubated at 37° C. on a shaker platform (250 rpm) overnight. The suspension was diluted to approximately 5×10^5 cfu/mL and inoculated into a polypropylene (Costar) 96-well round bottom plate (90 μL volumes). Compound stock solutions of Compound A and norfloxacin (Sigma Aldrich, St. Louis, Mo.; Catalogue# N9890) were prepared in DMSO and serial two-fold dilutions of compound were made in 0.01% acetic acid, 0.2% bovine serum albumin directly in the wells of the polypropylene plate at 10 μL/well. Final concentrations of Compound A were 50, 25, 12.5, 6.25, 3.13, 1.56, 0.78, 0.39, 0.19, 0.098, 0.049, and 0.024 μg/mL. Final concentration ranges of norfloxacin were 100, 50, 25, 12.5, 6.25, 3.13, 1.56, 0.78, 0.39, 0.19, 0.098, and 0.049 μg/mL. […] All samples were performed in triplicate. Following a 24 hour incubation at 37° C., cell growth was assessed by observing the presence of “acceptable growth”, defined by CLSI as a ≧2 mm button or definite turbidity. The MIC wells were defined as the lowest concentration where acceptable growth was not observed. For serial passage, 50 μL aliquots were taken from 2 of 3 replicate wells at 0.5×MIC and combined into 900 μL of fresh cation-adjusted Mueller-Hinton medium. The OD600 was measured and the cell suspensions were inoculated into polypropylene 96-well round bottom plates (90 μL volumes) at approximately 5×10^5 cfu/mL. Ten μL of compound stock solutions were added previously to the wells to achieve the concentration ranges for each compound described above. All samples were performed in triplicate. The plates were incubated for 24 hours at 37° C. This process was repeated for a total of 17 passages and MIC values were recorded at each passage.

[3] = in vivo; settings: mouse, iv
Method: as §4

[4] = Stability in presence of plasma and isolated hepatocytes; settings: multiple species
[5] = system: MSSA 27660; assay: Mouse peritonitis/sepsis model against MSSA 27660; assay type: in vivo
[6] = system: S. aureus (ATCC 13709); assay: Mouse thigh burden model; assay type: in vivo; settings: for bacterial reduction vs inoculated control group: thighs at 25 hours
Method: Female 6-7-week old CD-1 mice were made neutropenic with cyclophosphamide (150 mg/kg, i.p.) on days 4 and 1 before i.m. inoculation with S. aureus (ATCC 13709). S. aureus inoculum was prepared by transferring colonies from 18-20-hour tryptic soy agar (TSA) cultures to sterile PBS. The density was adjusted to approximately 10^6 cfu/mL with the aid of a spectrophotometer, and the inoculum concentration was determined by the dilution plate count method. Mice were inoculated by injecting each posterior thigh with 0.1 mL of inoculum. Compound A was given to separate groups of mice (4 females/group) by i.v. bolus doses of 1 or 2 mg/kg/dose at 1 and 5, 1 and 9, or 1 and 13 hours post inoculation as shown in Table 5. A separate control group of 4 mice received the inoculum without antibiotic treatment. Compound A was dissolved 50%/50% v/v sterile USP purified water/PBS. Thighs were harvested at 25 hours after inoculation. Thigh muscle and bone tissue were homogenized, aliquots of serial dilutions were plated on TSA and incubated at 37° C. for 20 hours, and colony counts were obtained to calculate cfu/thigh.

[7] = In vitro metabolic stability, blood plasma; assay type: in vitro ADME; settings: 5 μM, 37° C.
Method: (§1) Pooled plasma samples from human (mixed gender), rat (mixed breed and gender) and dog (mixed breed and gender) were incubated with Compound A (5 μM) at 37° C. for 0 and 60 minutes (duplicate samples). Incubations were terminated by addition of ice-cold precipitation solvent (acetonitrile:glacial acetic acid, 9:1 v/v). Supernatants were diluted with equal volume of 0.1% formic acid and analyzed by HPLC-MS/MS. Plasma stability is reported as % parent compound at 60 minutes relative to amount of parent at 0 minutes.

[8] = system: Strept. agalactiae; assay: MIC broth microdilution, Gram-positive clinical isolates; assay type: cell-based; settings: Streptococcus agalactiae; Strept. agalactiae; 2-3 isolates/organism; read-out: MIC
Method: (§2) Compound A was evaluated in vitro in accordance with defined CLSI documents specific to the organisms (aerobic, anaerobic or yeast) tested in this study. Ampicillin, ceftazidime, cefuroxime, ciprofloxacin, linezolid, and vancomycin were tested alongside as comparator agents for aerobic bacteria; clindamycin and metronidazole were tested as comparators for anaerobes; fluconazole was tested as a comparator for yeast isolates. Stock solutions of Compound A were prepared in dimethyl sulfoxide (DMSO). Ampicillin, ceftazidime, cefuroxime, ciprofloxacin, linezolid, vancomycin, metronidazole, clindamycin, and fluconazole were prepared each according to its manufacturer's guideline.
(§3) Minimum inhibitory concentrations (MICs) in μg/ml were determined according to CLSI guideline M7-A7 by broth microdilution. All aerobes were tested using Mueller-Hinton broth medium with the exception of Streptococcus spp., which were tested using cation-adjusted Mueller-Hinton broth supplemented with 2-5% lysed horse blood.

[9] = system: Staph. aureus (MRSA); assay: as above; assay type: cell-based; settings: Staphylococcus aureus; Staph. aureus (MRSA); 2-3 isolates/organism; read-out: MIC
Method: as §2, §3

[10] = system: Strept. pneumoniae; assay: as above; assay type: cell-based; settings: Streptococcus pneumoniae; Strept. pneumoniae; 2-3 isolates/organism; read-out: MIC
Method: as §2, §3

[11] = system: Staph. spidermidis; assay: as above; assay type: cell-based; settings: Staph. spidermidis; 2-3 isolates/organism; read-out: MIC
Method: as §2, §3

[12] = system: Entero. faecalis; assay: as above; assay type: cell-based; settings: Enterococcus faecalis; Entero. faecalis; 2-3 isolates/organism; read-out: MIC
Method: as §2, §3

[13] = system: Staph. saprophyticus; assay: as above; assay type: cell-based; settings: Staphylococcus saprophyticus; Staph. saprophyticus; 2-3 isolates/organism; read-out: MIC
Method: as §2, §3

[14] = system: Strept. viridians; assay: as above; assay type: cell-based; settings: Strept. viridians; 2-3 isolates/organism; read-out: MIC
Method: as §2, §3

[15] = system: Staph. spp. (coagulase−); assay: as above; assay type: cell-based; settings: Staph. spp. (coagulase−); 2-3 isolates/organism; read-out: MIC
Method: as §2, §3

[16] = In vitro metabolic stability, blood plasma (data not shown); assay type: in vitro ADME
Method: as §1

Structure (SMILES): N=C(N)NCCCCC(=O)Nc1cc(C(F)(F)F)cc(NC(=O)c2cc(C(=O)Nc3cc(C(F)(F)F)cc(NC(=O)CCCCNC(=N)N)c3O[C@H]3CCNC3)ncn2)c1O[C@H]1CCNC1 [Compound A, pyrimidine-4,6-dicarboxylic acid bis-{[3-(5-guanidino-pentanoylamino)-2-((R)-pyrrolidin-3-yloxy)-5-trifluoromethyl-phenyl]-amide}tetrahydrochloride]
- MTD [1]: >24 mg/kg
- change in MIC values on serial passage [2]: did not result in any change; also recorded: no change
- MTD [3]: 30 mg/kg
- stability in the presence of plasma and isolated hepatocytes [4]: stable
- efficacy in vivo [5]: efficacious
- bacterial reduction vs inoculated control group ([6]; 2 mg/kg/dose i.v. bolus at 1 and 5 hours after inoculation): 3.96 logs
- bacterial reduction vs inoculated control group ([6]; 2 mg/kg/dose i.v. bolus at 1 and 9 hours after inoculation): 3.93 logs
- static efficacy dose in the thigh burden model ([6]; mouse): 2 to 4 mg/kg
- Plasma Stability (%) ([7]; Dog (mixed breeds), 60 minutes): 100%
- Plasma Stability (%) ([7]; Human, parent at 60 minutes relative to 0 minutes): 96%
- Plasma Stability (%) ([7]; Rat (mixed breeds), 60 minutes): 102%
- MIC [8]: 2 µg/mL
- MIC [9]: 0.5 to 1 µg/mL
- MIC [10]: 4 to 8 µg/mL
- MIC [11]: 0.25 to 0.5 µg/mL
- MIC [12]: 1 µg/mL
- MIC [13]: 0.25 to 0.5 µg/mL
- MIC [14]: 2 to 8 µg/mL
- MIC [15]: 0.25 to 0.5 µg/mL
- loss of compound in plasma ([16]; cynomolgus monkeys): little to no loss
- loss of compound in plasma ([16]; rabbits): little to no loss
